Molecules are shown by their SMILES.

The assay deals with Mycobacterium tuberculosis variant bovis. In words: Antibacterial activity against Mycobacterium bovis. In kind it is functional.

As a reminder, the MIC is the lowest concentration that inhibits growth of the organism. The low end stands for inhibition by little substance, the high end for a need for much substance. As to `C=CC(C)(C)c1cc(/C=C/C(=O)c2ccc(O)cc2)c(OC)cc1O` [LICOAGROCHACONE A], the MIC was no more than 20 µg/mL.
